Reference: US20090176996A1, “PROCESS FOR THE PREPARATION OF SULFAMIDE DERIVATIVES” (priority 2008, published 2009)

For `NS(=O)(=O)NCc1ccccc1` (hydrate or solvate) [Example 5, Benzylsulfamide], the melting point was 102 to 104 °C.
